Patent US20130133245A1, “OXYGENATE ADDITIVE FOR INTERNAL COMBUSTION ENGINE FUEL, FUEL COMPOSITION COMPRISING THE SAME AND IMPROVED PROCESS FOR PRODUCING HIGHLY METHYLATED GLYCEROL ETHERS” (priority 2011, published 2013)

Assays:
[1] = Density of oxygenate additive (main properties comparison)
[2] = Solubility in gasoline or aviation turbine fuel; format: physicochemical
[3] = Solubility / miscibility in diesel fuel; format: physicochemical

For `COCCOCCOC` [DGM, diethylene glycol dimethyl ether], the Density [1] was 937 kg/m^3, the Heat of combustion (Heat of combustion) was -2.52e+07 J/kg and the Lower heating value (Lower heating value) was 24.5 kJ/g. It also gave a Flash point (Flash point) of 70 °C and a Lower flammability limit (Lower flammability limit) of 1.2 % vol.

With `COCC(COC)OC` [GTME, glycerol trimethyl ether] the “dissolution in gasoline or aviation turbine fuel” value [2] was “completely dissolved” and the “solubility in diesel fuel” value ([3]; diesel fuel) was roughly 100%.

With glycerol dimethyl ethers [GDMEs] the “miscibility with diesel fuel” value ([3]; too much amount mixed with diesel fuel) was “phase separation”.
